From patent US12371472B2, “Multimeric IL-15 soluble fusion molecules and methods of making and using same” (Altor BioScience, LLC., priority 2010, dated 2025)
Read-outs that look alike come from different tables or passages of the source.

Legend:
NK cells and CD8 T-cells = assay: Immunostimulatory activity in C57BL/6 mice (NK cells, CD8 T cells, WBC, spleen weight); assay type: in vivo
Description: Changes in the percentage of peripheral blood mononuclear cells (PBMC) CD8^+ and NKp46^+ cells were assessed flow cytometry as shown in FIG. 48B. PBMCs were also used to assess NK cell activity based on lysis of NK-sensitive Yac-1 target cells in a calcein release assay as shown in FIG. 48C.
On study day 4, the percentage of PBMC CD8^+ and NKp46^+ cells were assessed by flow cytometry (FIG. 49A). Nude mice were treated i.v. with IL15N72D/IL15Rα-Fc (0.2 mg/kg) or T2M2 (2 mg/kg) of study day 1. On day 4 and 7 post treatment, the percentage of PBMC NKp46^+ cells was assessed by flow cytometry (FIG. 49B). […]
Mice were i.v. injected on day 1 and 4 with the fusion proteins at an amount equivalent to a 2.5 μg dose of IL-15. On day 8, blood cells and splenocytes were collected, stained for CD8 T-cells and NK cells, and analyzed by flow cytometry. […]
C57BL/6 mice (male, 6 wks of age, Harlan, Indianapolis, IN) were injected intravenously with a single dose of IL-15N72D:IL-15RαSu/Fc fusion complex (Alt-803) at 1 mg/kg or human IL-15 wt at 0.28 mg/kg (molar equivalent dose), respectively, or PBS as a negative control. […] The stained cells were analyzed on a FACScan flow cytometer (BD Bioscience, San Jose, CA). […]

murine EG7-OVA lymphoma = assay: EG7-OVA lymphoma primary subcutaneous tumor growth in C57BL/6 mice (Example 27); assay type: in vivo; settings: ALT-803 0.415 or 0.83 mg/kg, rhIL-15 0.06 mg/kg, four i.v. injections
Description: To evaluate the effect of ALT-803 when administered via intravenous (i.v.) injection in multi-dose regimen on primary subcutaneous tumor growth of murine EG7-OVA lymphoma in C57BL/6 mice the following studies were carried out. Four treatment groups, ALT-803 (0.415 and 0.83 mg/kg), recombinant human interleukine-15 (rhIL-15, 0.06 mg/kg) and PBS (control), were examined in the study (Table 1). Female C57BL/6 mice (8-10 weeks old) were injected subcutaneously (s.c.) with EG7-OVA (1×10^6 cells in 100 μl PBS) on study day (SD) 0. PBS (n=5), rhIL-15 (n=5) or ALT-803 (n=5) were administered i.v. on SD 1, 4, 8, and 11 post EG7-OVA tumor cell injection. Tumors (width and length) were measured over the course of study. Tumor volume was the primary end point of the study.
Female C57BL/6 mice were injected s.c. with EG7-OVA (1×10^6 cells/mouse) on study day 0. […] During the study, mouse body weight and tumor width and length were measured and recorded.
The length (mm) and width (mm) of the tumors were measured and recorded. […]
Data were analyzed by ANOVA using GraphPad Prism Version 4.03. […] Tumor growth inhibition (TGI) was calculated using the following equation: TGI (%)=(Vcontrol−Vtreated)/Vcontrol×100, where Vcontrol is the mean tumor volume of mice from the PBS or rhIL-15 treatment control, and Vtreated is the mean tumor volume of mice receiving test article treatment.

[1] = test system: human p53+ HLA-A2+ A375 melanoma cell line; settings: vs PBS; for effect on s.c. A375 tumor xenografts: Example 17, i.v., equivalent molar doses
Description: A375 human melanoma tumor cells (1×10^6) were injected s.c. into nude mice (5-6/group). […] The mice were treated three times a week for three weeks starting on study day 11 (FIG. 50A). A375-tumor bearing nude mice were also treated i.v. with 4 mg/kg T2M as in FIG. 50A (FIG. 50B). A375 tumor bearing nude mice were i.v. with equivalent molar doses of IL-15 (0.2 mg/kg), T2M2 (2 mg/kg) or PBS (FIG. 50C). Tumors were measured every other day and tumor volumes (mean±SEM) were plotted.
To determine the therapeutic effects of the T2 protein, we examined antitumor activity in a primary tumor growth model with the human p53+ HLA-A2+A375 melanoma cell line in nude mice. Tumor cells were injected subcutaneously into nude mice and tumors were allowed to grow to 100 mm 3 before treatment began. […] The mice were treated every other day for one week (3 injections) followed by a 9 day rest period and then every other day for an additional week (3 injections). During the study, tumor growth was measured and the tumor volumes were plotted (FIG. 27).
The antitumor activity of these complexes was further examined in the subcutaneous A375 xenograft model in nude mice.

IL-15Rα = settings: cited from earlier work
IL-15Rα, sequence (Q13261 31-95 limits assumed): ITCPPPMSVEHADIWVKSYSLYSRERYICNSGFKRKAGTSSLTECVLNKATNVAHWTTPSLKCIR

5T33P myeloma cells = assay: 5T33P murine myeloma model; settings: single i.v. ALT-803 0.2 mg/kg or molar equivalent IL-15, well-established tumors, four days after treatment
Description: BM cells were collected 4 days after study drug treatments. […] The plotted values represent the mean±SE; P values are presented. […] Female C57BL/6NHsd mice (n=5/group) were injected i.v. with murine 5T33P myeloma cells (1×10^7 cells/mouse) on day 0. […] Control mice were treated with PBS on day 4. Survival (or morbidity due to hind leg paralysis) was monitored as a study endpoint. […] Five treatment-naïve mice were also administered 5T33P cells (1×10^7) on day 93 as a control for tumor development.
Tumor-bearing mice were monitored daily for hind leg paralysis, signs of overt disease progression and mortality.
Levels of BM myeloma cells and hind leg paralysis or survival were assessed as study endpoints.
Control mice received PBS (0.2 mL).

32Dβ cells [2] = settings: as disclosed in WO2008143794; cited from earlier work
32Dβ cells [3] = assay: 32Dβ cell proliferation assay (WST-1), IL-15 biological activity; assay type: cell-based; settings: hIL-15 wild-type domain, 48 h; read-out: half-maximal stimulation (EC50)
Description: The biological activity of the IL-15 domain of the T2 molecules was further characterized in proliferation assays using the cytokine-dependent 32Dβ cell line. […] Cell proliferation reagent WST-1 (Roche Applied Science) was added during the last 4 h of cell growth according to the manufacturer's procedures. Conversion of WST-1 to the colored formazan dye by metabolically active cells was determined through absorbance measurements at 440 nm.
Cell proliferation assays—Cell proliferation was measured as previously described (25). Briefly, 32Dβ cells (1×10^5 cells/well) were incubated with increasing concentrations of scTCR/hIL-15 or scTCR/hIL-15 muteins in the presence or absence of an equal molar concentration of scTCR/hIL-15RαSu for 48 h at 37° C. Cell proliferation reagent WST-1 (Roche Applied Science, Indianapolis, IN) was added during the last 4 h of cell growth according to the manufacturer's procedures. Conversion of WST-1 to the colored formazan dye by metabolically active cells was determined through absorbance measurements at 440 nm. The EC50 was determined with the dose-response curve generated from the experimental data by nonlinear regression variable slope curve-fitting with Prizm4 software (GraphPad Software, La Jolla, CA). […]

IL-15Rβγc receptors = biological target: T1, IL-15Rβγc receptors (UniProt P14784+P34902); assay: IL-15Rβγc receptor binding of IL-15 variants and fusion complexes on 32Dβ cells (flow cytometry); settings: 320 nM fusion protein complex
T1 construct: expressed in transfected cells; host or cells: 32Dβ cells
T1 sequence (P14784 27-551): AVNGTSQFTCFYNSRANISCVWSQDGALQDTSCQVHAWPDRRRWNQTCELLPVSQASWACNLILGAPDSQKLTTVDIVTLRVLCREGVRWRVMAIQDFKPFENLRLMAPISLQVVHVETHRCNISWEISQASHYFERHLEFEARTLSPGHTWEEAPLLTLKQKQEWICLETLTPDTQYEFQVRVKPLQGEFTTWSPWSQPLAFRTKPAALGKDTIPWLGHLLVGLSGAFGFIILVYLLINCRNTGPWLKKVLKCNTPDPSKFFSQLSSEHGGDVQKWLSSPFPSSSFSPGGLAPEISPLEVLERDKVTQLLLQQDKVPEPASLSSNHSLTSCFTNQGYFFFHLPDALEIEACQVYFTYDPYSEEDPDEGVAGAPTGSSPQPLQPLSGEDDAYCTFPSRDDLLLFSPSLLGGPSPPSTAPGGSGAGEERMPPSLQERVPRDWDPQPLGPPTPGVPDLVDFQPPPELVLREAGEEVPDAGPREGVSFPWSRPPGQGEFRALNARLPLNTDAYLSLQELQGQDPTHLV
T1 sequence (P34902 23-369): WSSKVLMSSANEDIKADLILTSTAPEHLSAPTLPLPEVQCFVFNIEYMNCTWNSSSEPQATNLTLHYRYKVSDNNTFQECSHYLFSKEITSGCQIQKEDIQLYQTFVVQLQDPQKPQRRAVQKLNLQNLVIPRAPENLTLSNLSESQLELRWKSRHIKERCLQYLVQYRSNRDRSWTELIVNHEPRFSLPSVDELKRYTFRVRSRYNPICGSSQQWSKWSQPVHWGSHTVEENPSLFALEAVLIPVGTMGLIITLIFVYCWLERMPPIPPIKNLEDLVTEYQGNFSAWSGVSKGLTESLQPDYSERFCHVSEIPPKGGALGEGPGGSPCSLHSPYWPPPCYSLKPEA
Description: (§1) The fusion protein complexes comprising IL-15 variants as described in the table immediately above were characterized for their ability to bind the TCR-specific antigen, p53 (aa264-272)/HLA-A2.1. To generate cells presenting p53 (aa264-272)/HLA-A2.1, HLA-A2.1-positive T2 cells (2×10^6/mL) were loaded with 20 μM p53 (aa264-272) peptide at 37° C. in the presence of 1×PLE (Altor Bioscience) for 2-3 hrs. T2 cells that were not incubated with peptide and 321313 cells expressing IL-2/15Rβγc serve as controls. […] These complexes were generated by incubating 160 nM of purified c264scTCRhuIL15 fusion protein and 160 nM of purified c264scTCRhuIL15Rα Sushi fusion protein at 4 C for 3 hours. Following staining, cells were washed once with washing buffer (PBS containing 0.5% BSA and 0.05% sodium azide) and stained with 0.5 μg of biotinylated mouse monoclonal anti-human TCR Cβ antibody (BF1) in 100 μL of washing buffer for 30 min at 4 C. Cells were washed once and stained with 0.5 μg of R-Phycoerythrin conjugated streptavidin in 100 μL of washing buffer for 30 min at 4 C. Cells were washed and resuspended for analysis by flow cytometry.
The binding of the proteins was in turn detected with biotinylated (BF1) 8A3.31 mAb for 15 min and SA-PE (5 μg/ml each) for 15 min. The stained cells were analyzed by flow cytometry as described above.

p53 (aa264-272)/HLA-A2.1 = assay: Flow cytometry staining of p53 (aa264-272) peptide-loaded HLA-A2-positive T2 cells; assay type: binding, human; settings: 320 nM dimeric complex; vs c264scTCR/huIL15+c264scTCR/huIL15RαSushi complex
Description: as §1, with “Cells were washed and resuspended for analysis by flow cytometry.” left out
For the OT1scTCR fusion protein complexes, murine lymphoma EL4 cells were pulsed with OVA peptide at 100 μg/ml and PLE at 37° C. for 6 h. […] The samples were washed two times and analyzed on a FACScan flow cytometer using CellQuest software (BD Biosciences, San Jose, CA). […]

TNF-α = TNF-α (Homo sapiens, UniProt P01375); settings: cited from earlier work
TNF-α, sequence (P01375 77-233 limits assumed): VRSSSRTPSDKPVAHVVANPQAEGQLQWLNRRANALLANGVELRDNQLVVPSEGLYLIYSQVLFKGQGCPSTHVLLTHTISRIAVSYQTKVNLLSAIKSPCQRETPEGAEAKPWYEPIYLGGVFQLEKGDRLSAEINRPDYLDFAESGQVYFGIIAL

IL-15: recombinant human wild-type IL-15
WBC counts, spleen weight and blood NK and CD8+ T cell populations (NK cells and CD8 T-cells; Example 17, single i.v. dose at molar equivalent of IL-15 1 mg/kg, day 4): little or no effect | expansion of NK and CD8+ T cells in blood and spleen (NK cells and CD8 T-cells; Example 22, single i.v. dose, complex 1 mg/kg or IL-15 wt 0.28 mg/kg, four days): no significant effect | EG7-OVA tumor growth vs PBS (murine EG7-OVA lymphoma): significantly inhibited | effect on s.c. A375 tumor xenografts [1]: no effect | Kd (IL-15Rα; in solution, Bouchaud et al. 2008, read-out: Kd of complex of soluble IL-15RαSu and IL-15): 0.1 nM | Kd (IL-15Rα; read-out: Equilibrium dissociation constant (KD) of hIL-15 with hIL-15Rα): ~0.01 nM | Kd (IL-15Rα; read-out: affinity of IL-15Rα for hIL-15): 0.038 nM | reduction in BM myeloma cells compared to PBS controls (5T33P myeloma cells): 53%

Mutant 6: human IL-15 variant, N72D
increase of IL-15 biological activity by the substitution (32Dβ cells [2]): 5 to 10 fold

c264scTCR/huIL15: c264scTCR fused to the N-terminus of hIL-15
EC50 (32Dβ cells [3]): ~0.3 nM | effect on s.c. A375 tumor xenografts [1]: no effect

c264scTCR/huIL15D8A+c264scTCR/huIL15Rα Sushi complex: dimeric fusion protein complex with IL-15 D8A variant
binding to the IL-15Rβγc receptors present on the 32Dβ cells (IL-15Rβγc receptors): do not show binding activity | specific staining of p53 peptide-loaded T2 cells (p53 (aa264-272)/HLA-A2.1): equivalent activity

c264scTCR/huIL15D8N+c264scTCR/huIL15RαSushi complex: dimeric fusion protein complex with IL-15 D8N variant
binding to the IL-15Rβγc receptors present on the 32Dβ cells (IL-15Rβγc receptors): do not show binding activity | specific staining of p53 peptide-loaded T2 cells (p53 (aa264-272)/HLA-A2.1): equivalent activity

c264scTCR/huIgG1: p53 (aa 264-272) single-chain TCR fused to human IgG1
A375 tumor growth ([1]; Example 10, i.v. 1.6 mg/kg T2 or c264scTCR/huIL2, 3 mg/kg 264scTCR/huIgG1): inhibited

etanercept
potency at inhibiting TNF-α activity relative to monomeric sTNFR (TNF-α): up to 1,000 times | serum half-life relative to the monomeric form (TNF-α): five-fold longer serum half-life
